This note sets out measurements from patent publication US6511966B2, “Mitochondria protecting agents for treating mitochondria associated diseases” (MitoKor, priority 1998, dated 2003).

The first assay deals with SH-SY5Y human neuroblastoma cells. In words: DCFC assay for inhibition of ROS production, cell-based aspect. To be noted: Homo sapiens, 0.5 h; SH-SY5Y cells pre-loaded with DCFC-DA; ferric chloride/ascorbate induced free radical formation; fluorescence change over 30 minutes; read-out: IC50 Cell-Based (Inhibition of ROS, DCFC assay). An excerpt:
According to this assay, the ability of a mitochondria protecting agent of the invention to inhibit production of ROS intracellularly may be compared to its antioxidant activity in a cell-free environment. […] Non-fluorescent DCFC is converted upon oxidation to a fluorophore that can be quantified fluorimetrically. Cell membranes are also permeable to DCFC, but the charged acetate groups of DCFC are removed by intracellular esterase activity, rendering the indicator less able to diffuse back out of the cell. In the cell-based aspect of the DCFC assay for inhibition of production of ROS, cultured cells may be pre-loaded with a suitable amount of DCFC and then contacted with a mitochondria protecting agent. After an appropriate interval, free radical production in the cultured cells may be induced by contacting them with iron (III)/ascorbate and the relative mean DCFC fluorescence can be monitored as a function of time. In the cell-based aspect of the DCFC assay, monolayers of cultured adherent SH-SY5Y human neuroblastoma cells (Biedler et al., Cancer Res. 33:2643, 1973) at or near confluence were rinsed and harvested using trypsin according to standard methods. […] The excess DCFC-DA was removed by needle aspiration and each well was gently rinsed twice with HBSS. Each well then received 80 μl of HBSS and 10 μl of mitochondria protecting agent, or vehicle control, diluted into HBSS from stock solutions of dimethylformamide or dimethylsulfoxide. The final concentration of the organic solvent was maintained at or below 0.1% (v/v) in HBSS while in contact with cells. Cells were equilibrated for 15 minutes at room temperature with the mitochondria protecting agent (or vehicle control) and then 10 μl of fresh 500 μM ferric chloride/300 μM ascorbate solution was added to initiate free radical formation. Fluorescence of each microculture in the 96-well plate was quantified immediately using a Cytofluor fluorimetric plate reader (model #2350, Millipore Corp., Bedford, Mass.; excitation wavelength=485 nm, emission wavelength=[…]) and t0 fluorescence was recorded. The 96-well plates were incubated 30 minutes at 37° C./5% CO2 and fluorescence at 530 nm was again measured (t30). […] The cells were then harvested by trypsinization and counted using a hemacytometer in order to normalize the data as Δ(t30,−t0)RMF per cell. The efficacy of a candidate mitochondria protecting agent was determined by comparing its ability to inhibit ROS production relative to the vehicle control.
Usually IC50 stands for the concentration that gives 50% inhibition. For `CN(C)c1cc(C(C)(C)c2ccc(O)c(N(C)C)c2)ccc1O` [(II-6)], the concentration for half-maximal inhibition (IC50) stood at 10 nM.

With `CC1=CC(C)(C)Nc2ccc(O)cc21` [(III-3), 2,2,4-trimethyl-1,2-dihydro-quinolin-6-ol], the IC50 stood at 70 nM.

Consider `CC(C)(C)CC(C)(C)c1ccc(O)c(N)c1` [(I-3)], for which the 50% inhibitory concentration (IC50) turned out to be 65 nM.

For the compound `CC(C)(c1ccc(O)c(N)c1)c1ccc(O)c(N)c1` [(II-2)], the half-maximal inhibitory concentration (IC50) was determined as 35 nM.

With `CC(C)(c1ccc(O)cc1)c1ccc(O)cc1` [(II-5), 4,4′-Isopropylidenediphenol], the IC50 turned out to be 1000 nM.

Turning to `CCCCCCCCc1ccc(O)c(N)c1` [(I-2), 2-amino4octyl phenol], the IC50 was 25 nM.

Take `CCCc1cc(O)ccc1O` [(I-10)]: the IC50 stood at 120 nM.

As for `CCCc1ccc(O)c(O)c1` [(I-6), 2-hydroxy4-propylphenol], the IC50 worked out at 200 nM.

Regarding `Cc1c(C)c2c(c(C)c1O)CCC(C)(CNNC(=N)N)O2` (stereo not drawn) [(IV-9)], the IC50 turned out to be 1000 nM.

For the compound `OCCCc1ccc(O)c(O)c1` [(I-5)], the 50% inhibitory concentration (IC50) is 100 nM.

For `CCCc1ccc(OC(C)=O)c(OC(C)=O)c1` [(I-8)], the IC50 is 400 nM.

Staying with this assay, now noted: Homo sapiens, SH-SY5Y, 0.5 h, read-out: IC50 Cell-Based (Inhibition of ROS, DCFC assay).
Take `CC(C)(c1ccc(O)cc1)c1ccc(O)c(NC(=N)N)c1` [(II-10)]: the IC50 came out at 1000 nM.

The assay is the same for the next values; noted with them: SH-SY5Y cells pre-loaded with DCFC-DA; ferric chloride/ascorbate induced free radical formation; fluorescence change over 30 minutes; read-out: IC50 Cell-Based (Inhibition of ROS, DCFC assay).
On to `CCOc1ccc2c(c1)C(C)=CC(C)(C)N2` [(III-4), 6-ethoxy-1,2-dihydro-2,2,4-trimethylguinoline], for which the IC50 was 20 nM.

A further assay concerns SH-SY5Y neuroblastoma cells. In words: Ionomycin induced apoptosis (membrane blebbing by light microscopy). It is filed as cell-based, human. The conditions noted are these: 10 μM ionomycin for 10 minutes, then 6h incubation at 37° C.; untreated cells <5%. The procedure: SH-SY5Y neuroblastoma cells (1×10^5 cells) are rinsed with one volume 1×PBS, and then treated with 10 μM ionomycin (Calbiochem, San Diego, Calif.) in DMEM supplemented with 10% fetal calf serum (FCS) (Gibco, Life Technologies, Grand Island, N.Y.) for 10 minutes, followed by two washes with DMEM (10% FCS). After 6h incubation at 37° C. in DMEM (10% FCS), cells are visualized by light microscopy (20X magnification). […] When cells are simultaneously treated with ionomycin and 2 mM creatine, the proportion of cells undergoing apoptosis as evidenced by membrane blebbing is reduced to approximately 10%. Candidate mitochondria protecting agents are assayed to determine whether they provides the same magnitude of protection from induction of apoptosis as does creatine in this ionomycin induced apoptosis assay.
`C[C@H](CCC(=O)O)C[C@H](C)C[C@H](C)C(=O)/C=C(\O)[C@H](C)C[C@H](C)C/C=C/[C@@H](C)[C@@H](O)[C@@H](C)[C@@H](O)C[C@@H]1CC[C@@](C)([C@H]2CC[C@@](C)([C@@H](C)O)O2)O1` [ionomycin]: the “ionomycin treated cells exhibiting membrane blebbing (final stage of apoptosis)” value is listed as “Approximately 80%”.

Still in this assay, the particulars now being: cells simultaneously treated with 10 μM ionomycin and 2 mM creatine; 6h incubation at 37° C.
For the compound `CN(CC(=O)O)C(=N)N` [creatine], the “proportion of cells undergoing apoptosis as evidenced by membrane blebbing” value was “approximately 10%”.
